Experimental data from patent publication US20210230203A1, “Amphiphilic Kanamycin Compositions and Methods” (priority 2020, published 2021).
In brackets after ≈: the same amount, converted by molar mass.

What was measured:
Coccidioldes sp. = assay: microbe, parasite or virus in culture; format: cell-based, Coccidioides species; settings: Table 3, RPMI 0.165M MOPS, 24-72 hours
Scedosporium = assay: MIC against various species, CLSI M27 & M38 (Table 4); settings: 24-72 hours
Candida auris = assay: MIC against yeast, CLSI M27 & M38 (Table 2); settings: 24-72 hours
[1] = tested on: S. aureus (ATCC 43300) MRSA; format: cell-based
E. coli (25922) = assay: MIC against bacterial strains; format: cell-based
P. variatii = assay: MIC against filamentous and dimorphic fungi, CLSI M27 & M38 (Table 3); format: cell-based, Paecilomyces variotii; settings: P. variatii MYA-3630, RPMI 0.165M MOPS, 24-72 hours
[2] = tested on: S. aureus (ATCC 33591) MRSA; format: cell-based
[3] = tested on: Cryptococcus neoformans H99; assay: MIC against fungal strains (Table 1); format: cell-based; settings: Cryptococcus neoformans H99
Candida parapsilosis = assay: MIC against yeast, CLSI M27 & M38 (Table 2); settings: Table 2, RPMI 0.165M MOPS, 24-72 hours
Candida glabrata = assay: MIC against yeast, CLSI M27 & M38 (Table 2); settings: 24-72 hours
C. krusei [4] = assay: MIC against various species, CLSI M27 & M38 (Table 4); settings: C. krusei AC ATCC 6258; Table 4; RPMI 0.165M MOPS; 24-72 hours
Rhizopus arrhizus = assay: MIC against filamentous and dimorphic fungi, CLSI M27 & M38 (Table 3); format: cell-based; settings: 24-72 hours
[5] = tested on: Fusarium graminearum B4-5A; assay: microbe, parasite or virus in culture; format: cell-based; settings: Fusarium graminearum B4-5A
Saksenaea sp. = assay: MIC against filamentous and dimorphic fungi, CLSI M27 & M38 (Table 3); format: cell-based, Saksenaea species; settings: 24-72 hours
S. aureus (ATCC 25923) = assay: MIC against bacterial strains; format: cell-based
Fusarium = assay: MIC against various species, CLSI M27 & M38 (Table 4); format: cell-based; settings: 24-72 hours
Candida albicans 64124 = assay: MIC against fungal strains (Table 1); format: cell-based
Histoplasma capsulatum = assay: microbe, parasite or virus in culture; format: cell-based; settings: Table 3, RPMI 0.165M MOPS, 24-72 hours
A. furnigatus = assay: MIC against various species, CLSI M27 & M38 (Table 4); settings: 24-72 hours
P. variotil = assay: as above; format: cell-based, Paecilomyces variotii; settings: P. variotil QC, RPMI 0.165M MOPS, 24-72 hours
C. krusei [6] = assay: MIC against yeast, CLSI M27 & M38 (Table 2); settings: C. krusei ATCC 6258; Table 2; RPMI 0.165M MOPS; 24-72 hours
[7] = Scedosporium SA1, RPMI 0.165M MOPS
[8] = Scedosporium SB1, RPMI 0.165M MOPS
[9] = Candida auris CAU1, RPMI 0.165M MOPS
[10] = Candida auris CAU2, RPMI 0.165M MOPS
[11] = Candida auris CAU3, RPMI 0.165M MOPS
[12] = Candida auris CAU4, RPMI 0.165M MOPS
[13] = Candida auris CAU5, RPMI 0.165M MOPS
[14] = Candida auris CAU6, RPMI 0.165M MOPS
[15] = Candida auris CAU7, RPMI 0.165M MOPS
[16] = Candida auris DI17-46, RPMI 0.165M MOPS
[17] = Candida auris DI17-47, RPMI 0.165M MOPS
[18] = Candida auris DI17-48, RPMI 0.165M MOPS
[19] = Candida glabrata CG1, RPMI 0.165M MOPS
[20] = Candida glabrata CG2, RPMI 0.165M MOPS
[21] = Candida glabrata CG3, RPMI 0.165M MOPS
[22] = Rhizopus arrhizus 99-880, RPMI 0.165M MOPS
[23] = Rhizopus arrhizus 99-892, RPMI 0.165M MOPS
[24] = Rhizopus arrhizus RA1, RPMI 0.165M MOPS
[25] = Saksenaea sp. SK1, RPMI 0.165M MOPS
[26] = Saksenaea sp. SK2, RPMI 0.165M MOPS
[27] = Saksenaea sp. SK3, RPMI 0.165M MOPS
[28] = A. furnigatus AF1, RPMI 0.165M MOPS
[29] = A. furnigatus AF2, RPMI 0.165M MOPS
[30] = A. furnigatus AF3, RPMI 0.165M MOPS

CCCCCCCCCCCCCCCC(=O)NC[C@H]1O[C@H](O[C@H]2[C@H](O)[C@@H](O[C@H]3O[C@H](CO)[C@@H](O)[C@H](N)[C@H]3O)[C@H](N)C[C@@H]2N)[C@H](O)[C@@H](O)[C@@H]1O [KI06]
Minimum inhibitory concentration 50% (Coccidioldes sp.; Coccidioldes sp. Cocci1): 4 µg/mL (≈ 5.53 µM) | Minimum inhibitory concentration 100% (Coccidioldes sp.; Coccidioldes sp. Cocci1): 8 µg/mL (≈ 11.1 µM) | Minimum inhibitory concentration 50% (Coccidioldes sp.; Coccidioldes sp. Cocci2): 4 µg/mL (≈ 5.53 µM) | Minimum inhibitory concentration 100% (Coccidioldes sp.; Coccidioldes sp. Cocci2): 8 µg/mL (≈ 11.1 µM) | Minimum inhibitory concentration 50% (Coccidioldes sp.; Coccidioldes sp. DI17-143): 4 µg/mL (≈ 5.53 µM) | Minimum inhibitory concentration 100% (Coccidioldes sp.; Coccidioldes sp. DI17-143): 8 µg/mL (≈ 11.1 µM) | Minimum inhibitory concentration 50% (Scedosporium; [7]): 2 µg/mL (≈ 2.77 µM) | Minimum inhibitory concentration 100% (Scedosporium; [7]): 4 µg/mL (≈ 5.53 µM) | Minimum inhibitory concentration 50% (Scedosporium; [8]): 1 µg/mL (≈ 1.38 µM) | Minimum inhibitory concentration 100% (Scedosporium; [8]): 8 µg/mL (≈ 11.1 µM) | Minimum inhibitory concentration 50% (Candida auris; [9]): 4 µg/mL (≈ 5.53 µM) | Minimum inhibitory concentration 100% (Candida auris; [9]): 8 µg/mL (≈ 11.1 µM) | Minimum inhibitory concentration 50% (Candida auris; [10]): 4 µg/mL (≈ 5.53 µM) | Minimum inhibitory concentration 100% (Candida auris; [10]): 8 µg/mL (≈ 11.1 µM) | Minimum inhibitory concentration 50% (Candida auris; [11]): 4 µg/mL (≈ 5.53 µM) | Minimum inhibitory concentration 100% (Candida auris; [11]): 8 µg/mL (≈ 11.1 µM) | Minimum inhibitory concentration 50% (Candida auris; [12]): 8 µg/mL (≈ 11.1 µM) | Minimum inhibitory concentration 100% (Candida auris; [12]): 8 µg/mL (≈ 11.1 µM) | Minimum inhibitory concentration 50% (Candida auris; [13]): 8 µg/mL (≈ 11.1 µM) | Minimum inhibitory concentration 100% (Candida auris; [13]): 8 µg/mL (≈ 11.1 µM) | Minimum inhibitory concentration 50% (Candida auris; [14]): 4 µg/mL (≈ 5.53 µM) | Minimum inhibitory concentration 100% (Candida auris; [14]): 8 µg/mL (≈ 11.1 µM) | Minimum inhibitory concentration 50% (Candida auris; [15]): 4 µg/mL (≈ 5.53 µM) | Minimum inhibitory concentration 100% (Candida auris; [15]): 8 µg/mL (≈ 11.1 µM) | Minimum inhibitory concentration 50% (Candida auris; [16]): 8 µg/mL (≈ 11.1 µM) | Minimum inhibitory concentration 100% (Candida auris; [16]): 8 µg/mL (≈ 11.1 µM) | Minimum inhibitory concentration 50% (Candida auris; [17]): 8 µg/mL (≈ 11.1 µM) | Minimum inhibitory concentration 100% (Candida auris; [17]): 8 µg/mL (≈ 11.1 µM) | Minimum inhibitory concentration 50% (Candida auris; [18]): 4 µg/mL (≈ 5.53 µM) | Minimum inhibitory concentration 100% (Candida auris; [18]): 8 µg/mL (≈ 11.1 µM) | Minimum inhibitory concentration [1]: 16 µg/mL (≈ 22.1 µM) | Minimum inhibitory concentration (E. coli (25922)): 32 µg/mL (≈ 44.3 µM) | Minimum inhibitory concentration 50% (P. variatii): 8 µg/mL (≈ 11.1 µM) | Minimum inhibitory concentration 100% (P. variatii): 16 µg/mL (≈ 22.1 µM) | Minimum inhibitory concentration [2]: 16 µg/mL (≈ 22.1 µM) | Minimum inhibitory concentration [3]: 4 µg/mL (≈ 5.53 µM) | Minimum inhibitory concentration 50% (Candida parapsilosis; C. parapsilosis ATCC 22019): 4 µg/mL (≈ 5.53 µM) | Minimum inhibitory concentration 100% (Candida parapsilosis; C. parapsilosis ATCC 22019): 8 µg/mL (≈ 11.1 µM) | Minimum inhibitory concentration 50% (Candida parapsilosis; Candida parapsilosis CP1): 4 µg/mL (≈ 5.53 µM) | Minimum inhibitory concentration 100% (Candida parapsilosis; Candida parapsilosis CP1): 8 µg/mL (≈ 11.1 µM) | Minimum inhibitory concentration 50% (Candida parapsilosis; Candida parapsilosis CP2): 4 µg/mL (≈ 5.53 µM) | Minimum inhibitory concentration 100% (Candida parapsilosis; Candida parapsilosis CP2): 8 µg/mL (≈ 11.1 µM) | Minimum inhibitory concentration 50% (Candida parapsilosis; Candida parapsilosis CP3): 8 µg/mL (≈ 11.1 µM) | Minimum inhibitory concentration 100% (Candida parapsilosis; Candida parapsilosis CP3): 16 µg/mL (≈ 22.1 µM) | Minimum inhibitory concentration 50% (Candida glabrata; [19]): 4 µg/mL (≈ 5.53 µM) | Minimum inhibitory concentration 100% (Candida glabrata; [19]): 8 µg/mL (≈ 11.1 µM) | Minimum inhibitory concentration 50% (Candida glabrata; [20]): 4 µg/mL (≈ 5.53 µM) | Minimum inhibitory concentration 100% (Candida glabrata; [20]): 4 µg/mL (≈ 5.53 µM) | Minimum inhibitory concentration 50% (Candida glabrata; [21]): 4 µg/mL (≈ 5.53 µM) | Minimum inhibitory concentration 100% (Candida glabrata; [21]): 4 µg/mL (≈ 5.53 µM) | Minimum inhibitory concentration 50% (C. krusei [4]): 4 µg/mL (≈ 5.53 µM) | Minimum inhibitory concentration 100% (C. krusei [4]): 8 µg/mL (≈ 11.1 µM) | Minimum inhibitory concentration 50% (Rhizopus arrhizus; [22]): 2 µg/mL (≈ 2.77 µM) | Minimum inhibitory concentration 100% (Rhizopus arrhizus; [22]): 4 µg/mL (≈ 5.53 µM) | Minimum inhibitory concentration 50% (Rhizopus arrhizus; [23]): 2 µg/mL (≈ 2.77 µM) | Minimum inhibitory concentration 100% (Rhizopus arrhizus; [23]): 4 µg/mL (≈ 5.53 µM) | Minimum inhibitory concentration 50% (Rhizopus arrhizus; [24]): 2 µg/mL (≈ 2.77 µM) | Minimum inhibitory concentration 100% (Rhizopus arrhizus; [24]): 4 µg/mL (≈ 5.53 µM) | Minimum inhibitory concentration [5]: 4 µg/mL (≈ 5.53 µM) | Minimum inhibitory concentration 50% (Saksenaea sp.; [25]): 1 µg/mL (≈ 1.38 µM) | Minimum inhibitory concentration 100% (Saksenaea sp.; [25]): 1 µg/mL (≈ 1.38 µM) | Minimum inhibitory concentration 50% (Saksenaea sp.; [26]): 1 µg/mL (≈ 1.38 µM) | Minimum inhibitory concentration 100% (Saksenaea sp.; [26]): 2 µg/mL (≈ 2.77 µM) | Minimum inhibitory concentration 50% (Saksenaea sp.; [27]): 1 µg/mL (≈ 1.38 µM) | Minimum inhibitory concentration 100% (Saksenaea sp.; [27]): 2 µg/mL (≈ 2.77 µM) | Minimum inhibitory concentration (S. aureus (ATCC 25923)): 16 µg/mL (≈ 22.1 µM) | Minimum inhibitory concentration 50% (Fusarium; Fusarium FO1, RPMI 0.165M MOPS): 8 µg/mL (≈ 11.1 µM) | Minimum inhibitory concentration 100% (Fusarium; Fusarium FO1, RPMI 0.165M MOPS): 8 µg/mL (≈ 11.1 µM) | Minimum inhibitory concentration 50% (Fusarium; Fusarium FO2, RPMI 0.165M MOPS): 4 µg/mL (≈ 5.53 µM) | Minimum inhibitory concentration 100% (Fusarium; Fusarium FO2, RPMI 0.165M MOPS): 8 µg/mL (≈ 11.1 µM) | Minimum inhibitory concentration 50% (Fusarium; Fusarium FS1, RPMI 0.165M MOPS): 4 µg/mL (≈ 5.53 µM) | Minimum inhibitory concentration 100% (Fusarium; Fusarium FS1, RPMI 0.165M MOPS): 8 µg/mL (≈ 11.1 µM) | Minimum inhibitory concentration (Candida albicans 64124): 8 µg/mL (≈ 11.1 µM) | Minimum inhibitory concentration 50% (Histoplasma capsulatum; Histoplasma capsulatum HC1): 2 µg/mL (≈ 2.77 µM) | Minimum inhibitory concentration 100% (Histoplasma capsulatum; Histoplasma capsulatum HC1): 4 µg/mL (≈ 5.53 µM) | Minimum inhibitory concentration 50% (Histoplasma capsulatum; Histoplasma capsulatum HC2): 4 µg/mL (≈ 5.53 µM) | Minimum inhibitory concentration 100% (Histoplasma capsulatum; Histoplasma capsulatum HC2): 8 µg/mL (≈ 11.1 µM) | Minimum inhibitory concentration 50% (Histoplasma capsulatum; Histoplasma capsulatum HC3): 2 µg/mL (≈ 2.77 µM) | Minimum inhibitory concentration 100% (Histoplasma capsulatum; Histoplasma capsulatum HC3): 4 µg/mL (≈ 5.53 µM) | Minimum inhibitory concentration 50% (A. furnigatus; [28]): 8 µg/mL (≈ 11.1 µM) | Minimum inhibitory concentration 100% (A. furnigatus; [28]): 8 µg/mL (≈ 11.1 µM) | Minimum inhibitory concentration 50% (A. furnigatus; [29]): 32 µg/mL (≈ 44.3 µM) | Minimum inhibitory concentration 100% (A. furnigatus; [29]): 32 µg/mL (≈ 44.3 µM) | Minimum inhibitory concentration 50% (A. furnigatus; [30]): 8 µg/mL (≈ 11.1 µM) | Minimum inhibitory concentration 100% (A. furnigatus; [30]): 16 µg/mL (≈ 22.1 µM) | Minimum inhibitory concentration 50% (P. variotil): 8 µg/mL (≈ 11.1 µM) | Minimum inhibitory concentration 100% (P. variotil): 8 µg/mL (≈ 11.1 µM) | Minimum inhibitory concentration 50% (C. krusei [6]): 8 µg/mL (≈ 11.1 µM) | Minimum inhibitory concentration 100% (C. krusei [6]): 8 µg/mL (≈ 11.1 µM)
